Tests used:
Assay in all cases: relative viability (nuclei count vs DMSO), 5 days (fraction); higher = more cells survive
NCI-H1355 = tested on: NCI-H1355
How it was run: (§1)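 Dosing by pin tool came one day after lung cancer cell lines were seeded in 1536-well plates, using either one drug or a fixed anchor-drug dose plus five library-drug doses (not always all listed) in √10 steps. After 5 days, nuclei were counted on 4× images. Relative viability is treated-well nuclei count divided by vehicle-well nuclei count, and values are medians of duplicate plates.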

NCI-H650 = tested on: NCI-H650
How it was run: as §1

NCI-H1792 = tested on: NCI-H1792
How it was run: as §1

HCC-366 = tested on: HCC-366
How it was run: as §1

SK-MES-1 = tested on: SK-MES-1
How it was run: as §1

NCI-H1993 = tested on: NCI-H1993
How it was run: as §1

SW 1573 = tested on: SW 1573
How it was run: as §1

SK-LU-1 = tested on: SK-LU-1
How it was run: as §1

NCI-H2228 = tested on: NCI-H2228
How it was run: as §1

HCC-827 = tested on: HCC-827
How it was run: as §1

NCI-H1975 = tested on: NCI-H1975
How it was run: as §1

Cc1cn(-c2cc(NC(=O)c3ccc(C)c(Nc4nccc(-c5cccnc5)n4)c3)cc(C(F)(F)F)c2)cn1 [Nilotinib] + Cc1nc(NC(=O)N2CCC[C@H]2C(N)=O)sc1-c1ccnc(C(C)(C)C(F)(F)F)c1 [Alpelisib] (partner 2 µM)
relative viability (NCI-H1355; first compound 0.001 µM): 0.764 | relative viability (NCI-H1355; first compound 0.003162 µM): 1.08 | relative viability (NCI-H1355; first compound 0.01 µM): 0.974 | relative viability (NCI-H1355; first compound 0.03162 µM): 0.784 | relative viability (NCI-H1355; first compound 0.1 µM): 0.931 | relative viability (NCI-H650; first compound 0.001 µM): 1 | relative viability (NCI-H650; first compound 0.003162 µM): 1.09 | relative viability (NCI-H650; first compound 0.01 µM): 1.4 | relative viability (NCI-H650; first compound 0.03162 µM): 0.989 | relative viability (NCI-H650; first compound 0.1 µM): 1.23 | relative viability (NCI-H1792; first compound 0.001 µM): 0.57 | relative viability (NCI-H1792; first compound 0.01 µM): 0.718 | relative viability (NCI-H1792; first compound 0.1 µM): 1.01 | relative viability (HCC-366; first compound 0.001 µM): 0.312 | relative viability (HCC-366; first compound 0.003162 µM): 0.43 | relative viability (HCC-366; first compound 0.01 µM): 0.428 | relative viability (HCC-366; first compound 0.03162 µM): 0.248 | relative viability (HCC-366; first compound 0.1 µM): 0.342 | relative viability (SK-MES-1; first compound 0.001 µM): 0.881 | relative viability (SK-MES-1; first compound 0.003162 µM): 1.15 | relative viability (SK-MES-1; first compound 0.01 µM): 0.95 | relative viability (SK-MES-1; first compound 0.03162 µM): 0.829 | relative viability (SK-MES-1; first compound 0.1 µM): 1.01 | relative viability (NCI-H1993; first compound 0.001 µM): 0.716 | relative viability (NCI-H1993; first compound 0.003162 µM): 0.66 | relative viability (NCI-H1993; first compound 0.01 µM): 0.755 | relative viability (NCI-H1993; first compound 0.03162 µM): 0.594 | relative viability (NCI-H1993; first compound 0.1 µM): 0.617 | relative viability (SW 1573; first compound 0.001 µM): 0.867 | relative viability (SW 1573; first compound 0.003162 µM): 0.764 | relative viability (SW 1573; first compound 0.01 µM): 0.92 | relative viability (SW 1573; first compound 0.03162 µM): 0.594 | relative viability (SW 1573; first compound 0.1 µM): 0.682 | relative viability (SK-LU-1; first compound 0.001 µM): 0.929 | relative viability (SK-LU-1; first compound 0.003162 µM): 1.03 | relative viability (SK-LU-1; first compound 0.01 µM): 1.06 | relative viability (SK-LU-1; first compound 0.03162 µM): 0.632 | relative viability (SK-LU-1; first compound 0.1 µM): 0.719 | relative viability (NCI-H2228; first compound 0.001 µM): 0.602 | relative viability (NCI-H2228; first compound 0.003162 µM): 0.763 | relative viability (NCI-H2228; first compound 0.01 µM): 0.814 | relative viability (NCI-H2228; first compound 0.03162 µM): 0.813 | relative viability (NCI-H2228; first compound 0.1 µM): 0.455 | relative viability (HCC-827; first compound 0.001 µM): 1.1 | relative viability (HCC-827; first compound 0.003162 µM): 1.09 | relative viability (HCC-827; first compound 0.01 µM): 1.03 | relative viability (HCC-827; first compound 0.1 µM): 0.92 | relative viability (NCI-H1975; first compound 0.001 µM): 0.723 | relative viability (NCI-H1975; first compound 0.003162 µM): 0.867 | relative viability (NCI-H1975; first compound 0.01 µM): 0.868 | relative viability (NCI-H1975; first compound 0.03162 µM): 0.737 | relative viability (NCI-H1975; first compound 0.1 µM): 0.648

Reference: the supplement of paper PMC10307832
